Test results published in publication PMC6919601, “Identification of Plasmodium dipeptidyl aminopeptidase allosteric inhibitors by high throughput screening” (PLoS ONE, 2019).

Biological target: T1, DPAP1 (Plasmodium falciparum, UniProt Q8IIJ9)
T1 sequence (Q8IIJ9 370-599 limits assumed): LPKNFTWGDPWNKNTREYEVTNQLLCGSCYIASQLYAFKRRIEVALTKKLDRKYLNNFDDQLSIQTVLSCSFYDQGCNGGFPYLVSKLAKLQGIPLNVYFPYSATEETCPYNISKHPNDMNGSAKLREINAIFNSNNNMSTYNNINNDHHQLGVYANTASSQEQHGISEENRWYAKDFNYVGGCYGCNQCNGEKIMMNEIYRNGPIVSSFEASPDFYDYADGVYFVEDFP
T1 sequence (Q8IIJ9 28-209 limits assumed): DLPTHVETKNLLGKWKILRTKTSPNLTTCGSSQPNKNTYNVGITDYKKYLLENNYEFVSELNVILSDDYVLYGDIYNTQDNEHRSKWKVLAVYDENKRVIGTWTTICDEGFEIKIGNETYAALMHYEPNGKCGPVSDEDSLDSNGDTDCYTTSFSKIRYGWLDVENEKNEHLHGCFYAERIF
T1 sequence (Q8IIJ9 600-700 limits assumed): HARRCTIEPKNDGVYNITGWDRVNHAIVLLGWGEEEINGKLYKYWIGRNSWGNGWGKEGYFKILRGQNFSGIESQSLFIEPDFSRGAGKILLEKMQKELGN
Assay: biochemical
Format: biochemical
Settings: for DPAP Primary hit (Hit = 1): 10 μM HTS, 0 not defined; for inhibition at 10 µM: 10 μM compound, parasite lysates, (PR)2Rho, 30 min end-point, read-out: DPAP1 % Inhibition @ 10 uM

| Structure (SMILES) | DPAP Primary hit (Hit = 1) | inhibition at 10 µM |
| --- | --- | --- |
| COc1ccc2ccccc2c1C1CC(=O)N2CN(Cc3ccccc3)CSC2=C1C#N (stereo not shown) [SMDC170106, COc1ccc2ccccc2c1C3CC(=O)N4CN(Cc5ccccc5)CSC4=C3C#N] | 0 | 36% |
| CCOc1ccc(C2CC(=O)N3CN(CCc4ccccc4)CSC3=C2C#N)cc1 (stereo not shown) [SMDC178842, CCOc1ccc(cc1)C2CC(=O)N3CN(CCc4ccccc4)CSC3=C2C#N] | 1 | 71% |
| COc1ccc(Br)cc1C1CC(=O)N2CN(Cc3ccccc3)CSC2=C1C#N (stereo not shown) [SMDC170155, COc1ccc(Br)cc1C2CC(=O)N3CN(Cc4ccccc4)CSC3=C2C#N] | 1 | 61% |
| Cc1ccccc1C1CC(=O)N2CN(Cc3ccccc3)CSC2=C1C#N (stereo not shown) [SMDC170122, Cc1ccccc1C2CC(=O)N3CN(Cc4ccccc4)CSC3=C2C#N] | 0 | 31% |
| COc1ccc(C2CC(=O)N3CN(CCC(C)C)CSC3=C2C#N)cc1OC (stereo not shown) [SMDC178780, COc1ccc(cc1OC)C2CC(=O)N3CN(CCC(C)C)CSC3=C2C#N] | 0 | 47% |
| CCOc1ccc(C2CC(=O)N3CN(Cc4ccccc4)CSC3=C2C#N)cc1 (stereo not shown) [SMDC170162, CCOc1ccc(cc1)C2CC(=O)N3CN(Cc4ccccc4)CSC3=C2C#N] | 0 | 49% |
| COc1ccc(Br)cc1C1CC(=O)N2CN(C3CCCCC3)CSC2=C1C#N (stereo not shown) [SMDC170135, COc1ccc(Br)cc1C2CC(=O)N3CN(CSC3=C2C#N)C4CCCCC4] | 1 | 60% |
| Cc1ccc(C2CC(=O)N3CN(Cc4cccnc4)CSC3=C2C#N)cc1 (stereo not shown) [SMDC178800, Cc1ccc(cc1)C2CC(=O)N3CN(Cc4cccnc4)CSC3=C2C#N] | 0 | 44% |
| CCOc1ccc(C2CC(=O)N3CN(C)CSC3=C2C#N)cc1OC (stereo not shown) [SMDC170104, CCOc1ccc(cc1OC)C2CC(=O)N3CN(C)CSC3=C2C#N] | 0 | 48% |
| COc1ccc(OC)c(C2CC(=O)N3CN(C4CCCCC4)CSC3=C2C#N)c1 (stereo not shown) [SMDC170143, COc1ccc(OC)c(c1)C2CC(=O)N3CN(CSC3=C2C#N)C4CCCCC4] | 0 | 10% |
| N#CC1=C2SCN(CCN3CCOCC3)CN2C(=O)CC1c1ccc(F)cc1 (stereo not shown) [SMDC178862, Fc1ccc(cc1)C2CC(=O)N3CN(CCN4CCOCC4)CSC3=C2C#N] | 1 | 50% |
| CCOc1ccc(C2CC(=O)N3CN(CCO)CSC3=C2C#N)cc1 (stereo not shown) [SMDC178832, CCOc1ccc(cc1)C2CC(=O)N3CN(CCO)CSC3=C2C#N] | 1 | 61% |
| CCOc1ccc(C2CC(=O)N3CN(C4CCCCC4)CSC3=C2C#N)cc1 (stereo not shown) [SMDC170152, CCOc1ccc(cc1)C2CC(=O)N3CN(CSC3=C2C#N)C4CCCCC4] | 0 | 47% |
| N#CC1=C2SCN(Cc3ccco3)CN2C(=O)CC1c1cccs1 (stereo not shown) [SMDC178892, O=C1CC(C(=C2SCN(Cc3occc3)CN12)C#N)c4cccs4] | 0 | 48% |
| N#CCNC(=O)[C@H](Cc1ccc2ccccc2c1)NC(=O)OCc1ccccc1 [SMDC279825, O=C(N[C@@H](Cc1ccc2ccccc2c1)C(=O)NCC#N)OCc3ccccc3] | – | 0.744% |
| COc1cc(C2CC(=O)N3CN(Cc4ccccc4)CSC3=C2C#N)cc(Br)c1O (stereo not shown) [SMDC170146, COc1cc(cc(Br)c1O)C2CC(=O)N3CN(Cc4ccccc4)CSC3=C2C#N] | 1 | 57% |
| COc1cc(C2CC(=O)N3CN(C4CCCCC4)CSC3=C2C#N)ccc1O (stereo not shown) [SMDC170163, COc1cc(ccc1O)C2CC(=O)N3CN(CSC3=C2C#N)C4CCCCC4] | 0 | -1% |
| CC[C@H](C)[C@H](NC(=O)OC(C)(C)C)C(=O)N[C@@H](CCc1ccccc1)C(=O)CCS(=O)(=O)c1ccccc1 [SMDC279745, CC[C@H](C)[C@H](NC(=O)OC(C)(C)C)C(=O)N[C@@H](CCc1ccccc1)C(=O)CCS(=O)(=O)c2ccccc2] | – | 3.66% |
